Data from ChEMBL document CHEMBL3885881, “DrugMatrix”.

Organism: Rattus norvegicus
Test: DrugMatrix - Regimen: Daily Repeat
Format: toxicity, organism-based, Sprague-Dawley
Set-up: regimen Daily Repeat, gender Male, age 6-8 weeks
Conditions: in vivo, po, route oral GAVAGE, vehicle 100 % SALINE; for ABSOLUTE BASOPHIL / ABSOLUTE EOSINOPHIL / ABSOLUTE LYMPHOCYTE / ABSOLUTE MONOCYTE / ABSOLUTE SEGMENTED NEUTROPHIL / BASOPHIL / EOSINOPHIL / ERYTHROCYTE COUNT / HEMATOCRIT / HEMOGLOBIN / LEUKOCYTE COUNT / LYMPHOCYTE / MEAN CORPUSCULAR HEMOGLOBIN / MEAN CORPUSCULAR HEMOGLOBIN CONCENTRATION / MEAN CORPUSCULAR VOLUME / MONOCYTE / NEUTROPHIL / NUCLEATED RED BLOOD CELLS / PLATELET COUNT: tissue Blood; for ALANINE AMINOTRANSFERASE / ALBUMIN / ALKALINE PHOSPHATASE / ASPARTATE AMINOTRANSFERASE / BLOOD UREA NITROGEN / CARBON DIOXIDE / CHLORIDE / CHOLESTEROL / CREATINE PHOSPHOKINASE / CREATININE / GLUCOSE / LACTATE DEHYDROGENASE / LIPASE / PHOSPHORUS / POTASSIUM / SODIUM / TOTAL BILIRUBIN / TOTAL PROTEIN / URIC ACID: tissue Plasma
[1] = 10 mg/kg, […], dose level Low, time 7 day
[2] = 30 mg/kg, 72 h, dose level High, time 3 day
[3] = 30 mg/kg, […], dose level High, time 7 day

## O=[As][O-].[Na+] [SODIUM ARSENITE]
[1]
  ABSOLUTE BASOPHIL: 0 CELLS/uL
  ABSOLUTE EOSINOPHIL: 0 CELLS/uL
  ABSOLUTE LYMPHOCYTE: 8882.33 CELLS/uL
  ABSOLUTE MONOCYTE: 292.83 CELLS/uL
  ABSOLUTE SEGMENTED NEUTROPHIL: 1158.17 CELLS/uL
  BASOPHIL: 0%
  EOSINOPHIL: 0%
  ERYTHROCYTE COUNT: 5.16 x10E6/uL
  HEMATOCRIT: 33.38%
  HEMOGLOBIN: 13.23 G/DL
  LEUKOCYTE COUNT: 10.33 x10E3/uL
  LYMPHOCYTE: 86.17%
  MEAN CORPUSCULAR HEMOGLOBIN: 25.68 pg
  MEAN CORPUSCULAR HEMOGLOBIN CONCENTRATION: 39.65 G/DL
  MEAN CORPUSCULAR VOLUME: 64.67 fL
  MONOCYTE: 2.83%
  NEUTROPHIL: 11%
  NUCLEATED RED BLOOD CELLS: 0 /100WBC
  PLATELET COUNT: 1191.67 x10E3/uL
  ALANINE AMINOTRANSFERASE: 43 u/L
  ALBUMIN: 4.45 G/DL
  ALKALINE PHOSPHATASE: 255.83 u/L
  ASPARTATE AMINOTRANSFERASE: 72.83 u/L
  BLOOD UREA NITROGEN: 13 mg/dL
  CARBON DIOXIDE: 29.83 mmol/L
  CHLORIDE: 98.83 MEQ/L
  CHOLESTEROL: 69.17 mg/dL
  CREATINE PHOSPHOKINASE: 248.67 u/L
  CREATININE: 0.18 mg/dL
  GLUCOSE: 139.17 mg/dL
  LACTATE DEHYDROGENASE: 91.83 u/L
  LIPASE: 10.5 u/L
  PHOSPHORUS: 11.75 mg/dL
  POTASSIUM: 6.25 MEQ/L
  SODIUM: 143.22 MEQ/L
  TOTAL BILIRUBIN: 0.15 mg/dL
  TOTAL PROTEIN: 5.95 G/DL
  URIC ACID: 0.93 mg/dL
[2]
  ABSOLUTE BASOPHIL: 0 CELLS/uL
  ABSOLUTE EOSINOPHIL: 24.17 CELLS/uL
  ABSOLUTE LYMPHOCYTE: 11880.83 CELLS/uL
  ABSOLUTE MONOCYTE: 220.67 CELLS/uL
  ABSOLUTE SEGMENTED NEUTROPHIL: 724.33 CELLS/uL
  BASOPHIL: 0%
  EOSINOPHIL: 0.17%
  ERYTHROCYTE COUNT: 5.56 x10E6/uL
  HEMATOCRIT: 36.35%
  HEMOGLOBIN: 12.9 G/DL
  LEUKOCYTE COUNT: 12.85 x10E3/uL
  LYMPHOCYTE: 92.17%
  MEAN CORPUSCULAR HEMOGLOBIN: 23.27 pg
  MEAN CORPUSCULAR HEMOGLOBIN CONCENTRATION: 35.48 G/DL
  MEAN CORPUSCULAR VOLUME: 65.6 fL
  MONOCYTE: 1.83%
  NEUTROPHIL: 5.83%
  NUCLEATED RED BLOOD CELLS: 0 /100WBC
  PLATELET COUNT: 1116 x10E3/uL
  ALANINE AMINOTRANSFERASE: 34.67 u/L
  ALBUMIN: 3.6 G/DL
  ALKALINE PHOSPHATASE: 172.83 u/L
  ASPARTATE AMINOTRANSFERASE: 76.5 u/L
  BLOOD UREA NITROGEN: 11.33 mg/dL
  CARBON DIOXIDE: 26.83 mmol/L
  CHLORIDE: 102.5 MEQ/L
  CHOLESTEROL: 75 mg/dL
  CREATINE PHOSPHOKINASE: 194.17 u/L
  CREATININE: 0.16 mg/dL
  GLUCOSE: 125.67 mg/dL
  LACTATE DEHYDROGENASE: 103.33 u/L
  LIPASE: 11.83 u/L
  PHOSPHORUS: 9.52 mg/dL
  POTASSIUM: 5.42 MEQ/L
  SODIUM: 143 MEQ/L
  TOTAL BILIRUBIN: 0.18 mg/dL
  TOTAL PROTEIN: 5.17 G/DL
  URIC ACID: 0.68 mg/dL
[3]
  ABSOLUTE BASOPHIL: 0 CELLS/uL
  ABSOLUTE EOSINOPHIL: 81.83 CELLS/uL
  ABSOLUTE LYMPHOCYTE: 12174.33 CELLS/uL
  ABSOLUTE MONOCYTE: 445.83 CELLS/uL
  ABSOLUTE SEGMENTED NEUTROPHIL: 2681.33 CELLS/uL
  BASOPHIL: 0%
  EOSINOPHIL: 0.5%
  ERYTHROCYTE COUNT: 5.27 x10E6/uL
  HEMATOCRIT: 32.5%
  HEMOGLOBIN: 12.83 G/DL
  LEUKOCYTE COUNT: 15.38 x10E3/uL
  LYMPHOCYTE: 81%
  MEAN CORPUSCULAR HEMOGLOBIN: 24.38 pg
  MEAN CORPUSCULAR HEMOGLOBIN CONCENTRATION: 39.47 G/DL
  MEAN CORPUSCULAR VOLUME: 61.75 fL
  MONOCYTE: 2.67%
  NEUTROPHIL: 15.83%
  NUCLEATED RED BLOOD CELLS: 0 /100WBC
  PLATELET COUNT: 966.33 x10E3/uL
  ALANINE AMINOTRANSFERASE: 39.67 u/L
  ALBUMIN: 4.02 G/DL
  ALKALINE PHOSPHATASE: 141.83 u/L
  ASPARTATE AMINOTRANSFERASE: 90 u/L
  BLOOD UREA NITROGEN: 16 mg/dL
  CARBON DIOXIDE: 27 mmol/L
  CHLORIDE: 100.17 MEQ/L
  CHOLESTEROL: 65.83 mg/dL
  CREATINE PHOSPHOKINASE: 152.83 u/L
  CREATININE: 0.14 mg/dL
  GLUCOSE: 126.83 mg/dL
  LACTATE DEHYDROGENASE: 98.33 u/L
  LIPASE: 9.83 u/L
  PHOSPHORUS: 9.15 mg/dL
  POTASSIUM: 5.46 MEQ/L
  SODIUM: 142.78 MEQ/L
  TOTAL BILIRUBIN: 0.13 mg/dL
  TOTAL PROTEIN: 5.38 G/DL
  URIC ACID: 0.55 mg/dL
